This assay addresses T1, glucocorticoid receptor (Homo sapiens, UniProt P04150).
T1 construct: expressed in transfected cells
T1 sequence (P04150 524-758 limits assumed): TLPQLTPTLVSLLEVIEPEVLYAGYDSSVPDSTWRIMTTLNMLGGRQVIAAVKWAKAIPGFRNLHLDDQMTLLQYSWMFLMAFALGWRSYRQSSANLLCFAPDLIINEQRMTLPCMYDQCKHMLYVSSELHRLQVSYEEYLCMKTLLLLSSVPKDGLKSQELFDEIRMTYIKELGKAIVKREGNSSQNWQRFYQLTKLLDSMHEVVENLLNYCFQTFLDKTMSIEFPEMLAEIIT
The assay is described as follows: Agonistic mode of action on the glucocorticoid receptor (CHO-Gal4/GR luciferase reporter cell line). Type of assay: cell-based. The conditions noted are these: range class observed in the agonistic assay or the antagonistic assay (CHO-Gal4/GR reporter cells); table does not say which mode applies per example. Put shortly: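 CHO cells stably carrying GAL4 DBD–GR ligand-binding-domain fusion and GAL4-UAS firefly luciferase reporter, 5000 cells/well grown 24 h, then compounds added in Opti-MEM at 8 half-log concentrations from 10 μM to 0.003 μM (0.5% DMSO), quadruplicates. Agonist-induced luminescence read on FLIPR Tetra; EC50 calculated.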

In turn, `Cc1nnc2n1-c1c(cc(C(F)F)c(-c3cccc4[nH]ccc34)c1F)NC2(C)C` [Example 343, 7-(Difluoro-methyl)-9-fluoro-8-(1H-indol-4-yl)-1,4,4-trimethyl-5H-[1,2,4]triazolo[4,3-a]quinoxaline] returned an IC50 or EC50 (agonist or antagonist mode not specified) of 1 to 15 µM.
With `CC#Cc1c[nH]c2c(-c3c(F)cc4c(c3F)-n3c(CC)nnc3C(C)(C)N4)cccc12` [Example 13, 1-ethyl-7,9-difluoro-4,4-dimethyl-8-(3-(prop-1-yn-1-yl)-1H-indol-7-yl)-4,5-dihydro-[1,2,4]triazolo[4,3-a]quinoxaline] the figure was 0.1 to 1 µM; with `Cc1c(-c2cccc3c2ccn3S(C)(=O)=O)ccc2c1-n1c(C)nnc1C(C)(C)N2` [Example 450, 1,4,4,9-tetramethyl-8-(1-(methylsulfonyl)-1H-indol-4-yl)-4,5-dihydro-[1,2,4]triazolo[4,3-a]quinoxaline], 0.1 to 1 µM; with `COc1c(-c2cc(F)cc3c2ccn3CCO)c(F)cc2c1-n1c(C)nnc1C(C)(C)N2` [Example 380, 2-[6-Fluoro-4-(7-fluoro-9-methoxy-1,4,4-trimethyl-5H-[1,2,4]triazolo [4,3-a]quinoxalin-8-yl)-1H-indol-1-yl]-ethanol], 1 to 15 µM.
For `Cc1c(-c2cccc3c2ccn3CC(F)F)c(OC(F)F)cc2c1-n1c(C)nnc1C(C)(C)N2` [Example 384, 8-[1-(2,2-Difluoro-ethyl)-1H-indol-4-yl]-7-(difluoro-methoxy)-1,4,4,9-tetramethyl-5H-[1,2,4]triazolo[4,3-a]quinoxaline] the value was 1 to 15 µM; for `Cc1nnc2n1-c1c(cc(F)c(-c3ccc(Cl)c4[nH]ccc34)c1F)NC2(C)C` [Example 529, 8-(7-Chloro-1H-indol-4-yl)-7,9-difluoro-1,4,4-trimethyl-5H-[1,2,4]triazolo[4,3-a]quinoxaline], 0.1 to 1 µM.
`COc1c(-c2cccc3c2ccn3S(C)(=O)=O)c(F)cc2c1-n1c(C)nnc1C(C)(C)N2` [Example 248, 7-Fluoro-9-methoxy-1,4,4-trimethyl-8-(1-methylsulfonyl-1H-indol-4-yl)-5H-[1,2,4]triazolo[4,3-a]quinoxaline] registered an IC50 or EC50 (agonist or antagonist mode not specified) of 0.1 to 1 µM.
Turning to `Cc1nnc2n1-c1c(cc(F)c(-c3cccc4[nH]ccc34)c1C(F)(F)F)NC2(C)C` [Example 467, 7-Fluoro-8-(1H-indol-4-yl)-1,4,4-trimethyl-9-(trifluoromethyl)-5H-[1,2,4]triazolo[4,3-a]quinoxaline], the IC50 or EC50 (agonist or antagonist mode not specified) was < 0.1 µM.
`Cc1c(-c2cccc3c(C)c[nH]c23)c(OC(F)F)cc2c1-n1c(C)nnc1C(C)(C)N2` [Example 360, 7-(Difluoro-methoxy)-1,4,4,9-tetramethyl-8-(3-methyl-1H-indol-7-yl)-5H-[1,2,4]triazolo[4,3-a]quinoxaline]: the IC50 or EC50 (agonist or antagonist mode not specified) lay in the range of 0.1 to 1 µM.
As to `CCc1c[nH]c2c(-c3c(F)cc4c(c3F)-n3c(C)nnc3C(C)(C)N4)cc(F)cc12` [Example 43, 8-(3-ethyl-5-fluoro-1H-indol-7-yl)-7,9-difluoro-1,4,4-trimethyl-4,5-dihydro-[1,2,4]triazolo[4,3-a]quinoxaline], the IC50 or EC50 (agonist or antagonist mode not specified) was < 0.1 µM.
With `Cc1nnc2n1-c1c(ccc(-c3cc(F)cc4c3ccn4S(C)(=O)=O)c1C(F)F)NC2(C)C` [Example 526, 9-(Difluoro-methyl)-8-(6-fluoro-1-methylsulfonyl-1H-indol-4-yl)-1,4,4-trimethyl-5H-[1,2,4] triazolo[4,3-a]quinoxaline] the figure was 0.1 to 1 µM; with `Cc1c(-c2cccc3[nH]ncc23)c(F)cc2c1-n1c(C)nnc1C(C)(C)N2` [Example 510, 7-Fluoro-8-(1H-indaxol-4-yl)-1,4,4,9-tetramethyl-5H-[1,2,4] triazolo[4,3-a]quinoxaline], 0.1 to 1 µM; with `Cc1nnc2n1-c1c(cc(F)c(-c3cc(F)cc4c3cnn4CCO)c1C(F)(F)F)NC2(C)C` [Example 449, 2-[6-Fluoro-4-[7-fluoro-1,4,4-trimethyl-9-(trifluoromethyl)-5H-[1,2,4]triazolo[4,3-a]quinoxalin-8-yl]-1H-indazol-1-yl]-ethanol], < 0.1 µM.
`Cc1c[nH]c2c(-c3c(F)cc4c(c3C(F)F)-n3c(C)nnc3C(C)(C)N4)cc(F)cc12` [Example 302, 9-(Difluoro-methyl)-7-fluoro-8-(5-fluoro-3-methyl-1H-indol-7-yl)-1,4,4-trimethyl-5H-[1,2,4]triazolo[4,3-a]quinoxaline]: the IC50 or EC50 (agonist or antagonist mode not specified) was < 0.1 µM.
For `Cc1nnc2n1-c1c(cc(OC(F)F)c(-c3cccc4c3ccn4S(C)(=O)=O)c1F)NC2(C)C` [Example 275, 7-(Difluoro-methoxy)-9-fluoro-1,4,4-trimethyl-8-(1-methylsulfonyl-1H-indol-4-yl)-5H-[1,2,4]triazolo[4,3-a]quinoxaline] the value was 1 to 15 µM.
For `Cc1nnc2n1-c1c(cc(F)c(-c3cccc4c3ccn4S(=O)(=O)C3CC3)c1C(F)F)NC2(C)C` [Example 401, 8-[1-(Cyclopropylsulfonyl)-1H-indol-4-yl]-9-(difluoro-methyl)-7-fluoro-1,4,4-trimethyl-5H-[1,2,4]triazolo [4,3-a]quinoxaline] the value was 0.1 to 1 µM; for `COCCn1ccc2c(-c3c(C(F)F)cc4c(c3F)-n3c(C)nnc3C(C)(C)N4)cc(F)cc21` [Example 396, 7-(Difluoro-methyl)-9-fluoro-8-[6-fluoro-1-(2-methoxy-ethyl)-1H-indol-4-yl]-1,4,4-trimethyl-5H-[1,2,4]triazolo[4,3-a]quinoxaline], 1 to 15 µM.
`CCc1nnc2n1-c1c(cc(F)c(-c3cccc4c3ccn4S(C)(=O)=O)c1C)NC2(C)C` [Example 247, 1-Ethyl-7-fluoro-4,4,9-trimethyl-8-(1-methylsulfonyl-1H-indol-4-yl)-5H-[1,2,4]triazolo[4,3-a]quinoxaline]: the IC50 or EC50 (agonist or antagonist mode not specified) was in the range of 1 to 15 µM.
For `CCc1c(-c2cc(F)cc3c2cnn3CCO)c(F)cc2c1-n1c(C)nnc1C(C)(C)N2` [Example 45, 2-[4-(9-Ethyl-7-fluoro-1,4,4-trimethyl-5H-[1,2,4]triazolo[4,3-a]quinoxalin-8-yl)-6-fluoro-1H-indazol-1-yl]-ethanol] the value was 0.1 to 1 µM; for `Cc1cc2c(c(F)c1-c1cccc3c1ccn3S(C)(=O)=O)-n1c(C)nnc1C(C)(C)N2` [Example 321, 9-Fluoro-1,4,4,7-tetramethyl-8-(1-methylsulfonyl-1H-indol-4-yl)-5H-[1,2,4]triazolo[4,3-a]quinoxaline], 1 to 15 µM.
As to `COc1cc2c(c(C(F)(F)F)c1-c1cccc3c(C)c[nH]c13)-n1c(C)nnc1C(C)(C)N2` [Example 357, 7-Methoxy-1,4,4-trimethyl-8-(3-methyl-1H-indol-7-yl)-9-(trifluoromethyl)-5H-[1,2,4]triazolo[4,3-a]quinoxaline], the IC50 or EC50 (agonist or antagonist mode not specified) is < 0.1 µM.
As to `Cc1c(-c2cc(F)cc3c(C)c[nH]c23)c(Cl)cc2c1-n1c(C)nnc1C(C)(C)N2` [Example 363, 7-Chloro-8-(5-fluoro-3-methyl-1H-indol-7-yl)-1,4,4,9-tetramethyl-5H-[1,2,4]triazolo[4,3-a]quinoxaline], the IC50 or EC50 (agonist or antagonist mode not specified) was < 0.1 µM.
For `Cc1c[nH]c2c(-c3c(F)cc4c(c3C3CC3)-n3c(C)nnc3C(C)(C)N4)cccc12` [Example 463, 9-Cyclopropyl-7-fluoro-1,4,4-trimethyl-8-(3-methyl-1H-indol-7-yl)-5H-[1,2,4]triazolo[4,3-a] quinoxaline], the IC50 or EC50 (agonist or antagonist mode not specified) was < 0.1 µM.
With `COCCn1ccc2c(-c3c(C(F)F)cc4c(c3F)-n3c(C)nnc3C(C)(C)N4)cccc21` [Example 295, 7-(Difluoro-methyl)-9-fluoro-8-[1-(2-methoxy-ethyl)-1H-indol-4-yl]-1,4,4-trimethyl-5H-[1,2,4]triazolo[4,3-a]quinoxaline] the figure was 1 to 15 µM.
With `Cc1nnc2n1-c1c(cc(F)c(-c3cccc4c(C5CC5)c[nH]c34)c1Cl)NC2(C)C` [Example 85, 9-Chloro-8-(3-cyclopropyl-1H-indol-7-yl)-7-fluoro-1,4,4-trimethyl-5H-[1,2,4]triazolo[4,3-a]quinoxaline] the figure was 0.1 to 1 µM; with `Cc1nnc2n1-c1c(cc(F)c(-c3cccc4c(C5CCC5)c[nH]c34)c1Cl)NC2(C)C` [Example 41, 9-chloro-8-(3-cyclobutyl-1H-indol-7-yl)-7-fluoro-1,4,4-trimethyl-4,5-dihydro-[1,2,4]triazolo[4,3-a]quinoxaline], < 0.1 µM; with `COc1c(-c2cc(C)cc3c2ccn3S(C)(=O)=O)c(F)cc2c1-n1c(C)nnc1C(C)(C)N2` [Example 477, 7-Fluoro-9-methoxy-1,4,4-trimethyl-8-(6-methyl-1-methylsulfonyl-1H-indol-4-yl)-5H-[1,2,4]triazolo[4,3-a]quinoxaline], 0.1 to 1 µM.
With `CC#Cc1c[nH]c2c(-c3c(F)cc4c(c3F)-n3c(CC)nnc3C(C)(C)N4)cc(F)cc12` [Example 16, 1-ethyl-7,9-difluoro-8-(5-fluoro-3-(prop-1-yn-1-yl)-1H-indol-7-yl)-4,4-dimethyl-4,5-dihydro-[1,2,4]triazolo[4,3-a]quinoxaline] the figure was 0.1 to 1 µM.
